Reference: US20240382446A1, “METHOD FOR IMPROVING FEED INTAKE” (OREXA B.V., priority 2021, published 2024)
Where two headings read alike, the source gives them in different places.

Legend:
[1] = Weaning of mice with feed comprising various local anesthetics (body weight); assay type: in vivo
Protocol: Litters of mice are weaned on day 18 after birth. The siblings are divided over 2 groups (placebo and active) with group sizes of 7-10 siblings.
The pups are offered daily ad libitum food in which a local anesthetic is mixed. Body weight is measured daily.
In TABLES I-IV the body weight is depicted as percentage increase on day 14 in comparison to baseline, as a result of dosing lidocaine (comparative), prilocaine (comparative), bupivacaine (comparative) and benzocaine (according to the invention) to the mice. The baseline is the weight of the mouse at the beginning of the experiment. Placebo and experimental scores are statistically compared by means of student-t tests (* p<0,05; ** p<0,01; *** p<0,001). Doses are indicated on the x-axis and are mg per day for the group of siblings.

[2] = cited from earlier work
[3] = Weaning of piglets with feed comprising various amounts of benzocaine; assay type: in vivo
Protocol: Six groups of 21 piglets were treated.
They were fed with controlled amounts of feed (see table V).
Before administration, the food pellets were drenched in water for 30 min and benzocaine (0 g (3×), 5 g, 12,75 g or 17 g, corresponding to a dose of 0, 30, 75 and 100 mg per day per pig, respectively) was added and mixed. The group of piglets receiving feed with 0% benzocaine is referred to as the placebo group.
Amounts of feed consumed were recorded. Piglets were weighed on day 1 (baseline), 4, and 8.

[4] = mice weaned day 18, anesthetic mixed in ad libitum food, day 14 vs baseline
[5] = benzocaine treated pigs vs placebo group

**Q.** Which “growth of the mice (body weight increase) in comparison to placebo” value [1, 4] does the source give for `CCN(CC)CC(=O)Nc1c(C)cccc1C` [Lidocaine, lidocaine] here?
**A.** Its value is “either inactive (low dose) or inhibit the growth of the mice”.

**Q.** Which solubility ([2]; dilute acids) does the source give for `CCOC(=O)c1ccc(N)cc1` [benzocaine] here?
**A.** Its solubility is “more soluble”.

**Q.** And the solubility ([2]; ethanol, chloroform, and ethyl ether)?
**A.** Its solubility is “very soluble”.

**Q.** And the solubility ([2]; water)?
**A.** Its solubility is “sparingly soluble”.

**Q.** And the fouling and diarrhea [3, 5]?
**A.** The fouling and diarrhea was “less fouling and less diarrhea”.

**Q.** What about the “general condition of the pigs” value [3, 5] of the same compound?
**A.** Its value is “better than that of the placebo group”.

**Q.** What about the “feed intake relative to placebo” value ([3]; piglets, after day 4, 30 mg and 75 mg benzocaine per day) of the same compound?
**A.** Its value is “increase feed intake”.

**Q.** What about the “growth of lightest vs heaviest 50% of the animals” value ([3]; piglets, day 7, group analysis vs placebo) of the same compound?
**A.** Its value is “increase of growth in the benzocaine-fed group primarily takes place with the light weight animals”.

**Q.** What about the “feed intake relative to placebo” value ([3]; piglets, first 3 days) of the same compound?
**A.** The value was “initial reduction of the feed intake”.

**Q.** What about the optimal dose ([3]; piglets, per pig) of the same compound?
**A.** Its optimal dose is 75 mg per day.

**Q.** What about the “feed conversion (feed needed per weight gain)” value ([3]; piglets, with increasing benzocaine dosing, placebo about 12,8 kg feed per 1 kg) of the same compound?
**A.** Its value is 2,6 kg of feed per 1 kg of meat.

**Q.** And the “growth of the mice (body weight increase) in comparison to placebo” value ([1]; 200 mg per day for the group of siblings, day 14)?
**A.** Its value is “inhibits the growth”.

**Q.** And the “growth of the mice (body weight increase) in comparison to placebo” value ([1]; low doses 25, 50 and 100 mg per day for the group of siblings, day 14)?
**A.** The value was “increases the growth”.

**Q.** Which “growth of the mice (body weight increase) in comparison to placebo” value [1, 4] does the source give for `CCCCN1CCCCC1C(=O)Nc1c(C)cccc1C` (stereo not drawn) [bupivacaine] here?
**A.** Its value is “either inactive (low dose) or inhibit the growth of the mice”.

**Q.** With `CCCNC(C)C(=O)Nc1ccccc1C` (stereo not drawn) [prilocaine] as the compound, how does the “growth of the mice (body weight increase) in comparison to placebo” value [1, 4] read?
**A.** The value was “either inactive (low dose) or inhibit the growth of the mice”.
